According to the supplement of paper PMC5412046:
Structures can show the parent of a compound that is named as a salt.

Tests used:
SB.msgc-1 [1] = experiment: area under the dose-response curve of % viability (trapezoidal, 11 doses) (% viability x log10 concentration); higher = less cytotoxic; settings: SB.msgc-1 (sporadic gastric cancer)
In short: (§1)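 Viability, normalised to DMSO, is listed either at the highest concentration or as trapezoidal area under the curve. It was measured in patient-derived gastric cancer cells, hereditary or sporadic, exposed for 48 h to 11 threefold-diluted compound concentrations and then assayed with CellTiter-Glo luminescence.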

SB.mhdgc-1 [2] = experiment: as above; settings: SB.mhdgc-1 (hereditary c.1380delA CDH1 gastric cancer)
In short: as §1

SB.msgc-1 [3] = experiment: viability at highest tested concentration (MAXR) relative to DMSO; higher = less cytotoxic; settings: SB.msgc-1 (sporadic gastric cancer)
In short: as §1

SB.mhdgc-1 [4] = experiment: as above; settings: SB.mhdgc-1 (hereditary c.1380delA CDH1 gastric cancer)
In short: as §1

SMILES	area under the dose-response curve (SB.msgc-1 [1])	area under the dose-response curve (SB.mhdgc-1 [2])	viability (SB.msgc-1 [3]) [%]	viability (SB.mhdgc-1 [4]) [%]
Cc1nc2cnc3ccc(C#Cc4cccnc4)cc3c2n1-c1ccc(C(C)(C)C#N)cc1 [BAG-956] (top concentration 46.0829 µM)	343	207	25.4	0.508
O=C1NC(=O)/C(=C/c2cccc(C(F)(F)F)c2)S1 [SMI-4a] (top concentration 46.0829 µM)	509	551	50.3	69.4
COc1cc(C(=O)N2CCC(N3CCN(C)CC3)CC2)ccc1Nc1ncc2c(n1)N(C)c1ccccc1C(=O)N2C [LRRK2-IN-1] (top concentration 46.0829 µM)	423	483	13.7	35.1
Cc1cc2c(cc1C1(c3ccc(C(=O)O)cn3)CC1)C(C)(C)CCC2(C)C (top concentration 46.0829 µM)	460	564	62	94.7
Nc1cccc(-c2cc3c(Oc4cccc(O)c4)ncnc3[nH]2)c1 [TWS-119] (top concentration 46.0829 µM)	522	456	32.8	48
C=CC(=O)Nc1ccc2ncnc(Nc3ccc(OCc4cccc(F)c4)c(Cl)c3)c2c1 [AST-1306] (top concentration 46.0829 µM)	183	314	10.9	1.47
CCOc1ccccc1N/N=C1/C(=O)N(c2nc(-c3ccccc3)cs2)N=C1C [BAM7] (top concentration 46.0829 µM)	468	434	49.1	34.6
CCC1=C2C=C(OC(=O)N3CCC(CC3)N4CCCCC4)C=CC2=NC\5=C1CN6C(=O)\C7=C(/C=C56)[C@@](O)(CC)C(=O)OC7 [Irinotecan] (top concentration 46.0829 µM)	394	321	42.7	26.6
Cc1c[nH]c(-c2cnc(NCCNc3ccc(C#N)cn3)nc2-c2ccc(Cl)cc2Cl)n1 (top concentration 46.0829 µM)	415	338	41.5	45.1
COC(=O)N1CCN(Cc2cccc(NC(=O)Nc3ccc(C)nc3)c2F)CC1 [Omecamtiv mecarbil] (top concentration 46.0829 µM)	503	397	72.8	63.7
CNCC(O)C(O)C(O)C(O)CO.O=C(O)c1ccc(-c2cc3cccnc3c(-c3ccc4nonc4c3)n2)cc1 [NVP-ABE171] (top concentration 46.0829 µM)	511	567	20.2	7.16
Cc1cccc(/C=N/Nc2cc(N3CCOCC3)nc(OCCc3ccccn3)n2)c1 [Apilimod] (top concentration 46.0829 µM)	447	423	18.9	6.66
CN(C)Cc1c(C(=O)NCCOc2ccc(C(=O)NO)cc2)oc2ccccc12 [Abexinostat] (top concentration 46.0829 µM)	341	418	2.46	4.2
CC1=C2N=C([NH]C2=CC(=C1)N3CCOCC3)\C4=C(NC[C@@H](O)C5=CC=CC(=C5)Cl)\C=C/NC4=O (top concentration 46.0829 µM)	418	314	28.1	21
Cc1cccc(C)c1OCC(=O)N[C@@H](Cc1ccccc1)[C@@H](O)C[C@H](Cc1ccccc1)NC(=O)[C@H](C(C)C)N1CCCNC1=O [Lopinavir] (top concentration 46.0829 µM)	497	453	53.2	53.2
CC(C)(O)/C=C\C(=O)[C@](C)(O)[C@H]1[C@H](O)C[C@]2(C)[C@@H]3CC=C4[C@@H](C=C(O)C(=O)C4(C)C)[C@]3(C)C(=O)C[C@@]12C [Cucurbitacin I] (top concentration 46.0829 µM)	325	214	2.43	2.26
NC/1=N/C(=O)C2=C(N1)[N](C=N2)[C@@H]3C[C@H](O)[C@@H](CO)C3=C [Entecavir] (top concentration 46.0829 µM)	494	512	58.3	40.3

SMILES	area under the dose-response curve (SB.msgc-1 [1])	area under the dose-response curve (SB.mhdgc-1 [2])	viability (SB.msgc-1 [3]) [%]	viability (SB.mhdgc-1 [4]) [%]
N#C/C(=C(/N)Sc1ccc(N)cc1)c1ccccc1C(F)(F)F [SL-327] (top concentration 46.0829 µM)	519	429	64.7	41.5
N[C@@H](Cc1ccc(O)c(O)c1)C(=O)O [Levodopa] (top concentration 46.0829 µM)	571	583	116	118
O=c1[nH]c2ccccc2n1CCCN1CCC(n2c(=O)[nH]c3cc(Cl)ccc32)CC1 [Domperidone] (top concentration 46.0829 µM)	532	515	84.6	91.7
COC(=O)Nc1nc2ccc([S+]([O-])c3ccccc3)cc2[nH]1 (stereo unspecified) [Oxfendazole] (top concentration 46.0829 µM)	472	438	37.7	59.2
C[C@@H](NCc1cc2ccccc2[nH]1)c1cccc2ccccc12 [Calindol] (top concentration 46.0829 µM)	334	532	41.7	82.9
CCC1=C[C@@H]2CN(C1)Cc1c([nH]c3ccccc13)[C@@](C(=O)OC)(c1cc3c(cc1OC)N(C)[C@H]1[C@@](O)(C(=O)OC)[C@H](OC(C)=O)[C@]4(CC)C=CCN5CC[C@]31[C@@H]54)C2 [Vinorelbine] (top concentration 46.0829 µM)	347	264	43.5	15.2
O=C1c2cccc(O)c2C(=O)c2c(O)cc(CO)cc21 [Aloe-emodin] (top concentration 46.0829 µM)	402	479	60.1	87.4
CCc1cc(Nc2nccc(-c3c(-c4ccc(OC)c(C(=O)Nc5c(F)cccc5F)c4)nc4ccccn34)n2)c(OC)cc1N1CCC(N2CCN([S+](C)(=O)[O-])CC2)CC1 (top concentration 46.0829 µM)	405	251	27.3	9.39
CC(C)c1cnn2c(NCc3ccccc3)cc(NCCCCCCN)nc12 [BS-181] (top concentration 46.0829 µM)	486	370	17.1	0.291
CC(N)C12CC3CC(CC(C3)C1)C2 (stereo unspecified) [Rimantadine] (top concentration 46.0829 µM)	559	569	112	136
NC(=O)Nc1cc(-c2cccc(F)c2)sc1C(=O)N[C@H]1CCCNC1 [AZD-7762] (top concentration 46.0829 µM)	389	302	44.1	2.9
CN(C/C=C/C#CC(C)(C)C)Cc1cccc2ccccc12 [Terbinafine hydrochloride] (top concentration 46.0829 µM)	557	496	97.5	109
CO[C@@H]1[C@H](N(C)C(=O)c2ccccc2)C[C@H]2O[C@]1(C)n1c3ccccc3c3c4c(c5c6ccccc6n2c5c31)C(=O)NC4 [Midostaurin] (top concentration 46.0829 µM)	490	389	56.2	33.4
COC1=CC=C(C=C1)C/2=C/OC3=C(C(=CC(=C3)O)O)C2=O [Biochanin A] (top concentration 46.0829 µM)	575	503	119	120
C[C@@H](CN1CC(=O)NC(=O)C1)N1CC(=O)NC(=O)C1 [Dexrazoxane hydrochloride] (top concentration 46.0829 µM)	491	384	73.3	33.7
CCCCCCCN(CC)CCCC(O)c1ccc(NS(C)(=O)=O)cc1.CCCCCCCN(CC)CCCC(O)c1ccc(NS(C)(=O)=O)cc1.O=C(O)/C=C/C(=O)O (stereo unspecified) [Ibutilide fumarate] (top concentration 46.0829 µM)	569	523	64.3	37.1
COc1cc2nc(N3CCCN(C)CC3)nc(NC3CCN(Cc4ccccc4)CC3)c2cc1OC (top concentration 46.0829 µM)	450	420	40.8	5.5
